The values that follow come from US8450327B2, “CGRP antagonists” (Boehringer Ingelheim International GmbH, priority 2007, dated 2013).

For the assay, the target named is T1, human CGRP receptor (Homo sapiens, UniProt O60894+Q16602).
T1 construct: SK-N-MC cells are cultivated in “Dulbecco's modified Eagle medium”; endogenous in cells; host or cells: SK-N-MC cells (membrane homogenate)
In words: Binding studies with SK-N-MC cells (expressing the human CGRP receptor), 125I-CGRP displacement on membranes. The following applies: SK-N-MC cell membranes, 50 pM 125I-iodotyrosyl-CGRP, 180 min at ambient temperature. On the procedure: A. Binding Studies with SK-N-MC Cells (Expressing the Human CGRP Receptor)
SK-N-MC cells are cultivated in “Dulbecco's modified Eagle medium”. The medium is removed from confluent cultures. The cells are washed twice with PBS buffer (Gibco 041-04190 M), detached by the addition of PBS buffer mixed with 0.02% EDTA, and isolated by centrifuging. After resuspension in 20 ml of “Balanced Salts Solution” [BSS (in mM): NaCl 120, KCl 5.4, NaHCO3 16.2, MgSO4 0.8, NaHPO4 1.0, CaCl2 1.8, D-glucose 5.5, HEPES 30, pH 7.40] the cells are centrifuged twice at 100×g and resuspended in BSS. After the number of cells has been determined, the cells are homogenised using an Ultra-Turrax and centrifuged for 10 minutes at 3000×g. […]
After thawing, the homogenised product is diluted 1:10 with assay buffer (50 mM Tris, 150 mM NaCl, 5 mM MgCl2, 1 mM EDTA, pH 7.40) and homogenised for 30 seconds with an Ultra-Turrax. […] The protein-bound radioactivity is measured using a gamma counter. Non-specific binding is defined as the bound radioactivity after the presence of 1 μM human CGRP-alpha during incubation.
The concentration binding curves are analysed using computer-aided non-linear curve fitting.

Each structure is given as a SMILES string.

T1 sequence (Q16602 23-461): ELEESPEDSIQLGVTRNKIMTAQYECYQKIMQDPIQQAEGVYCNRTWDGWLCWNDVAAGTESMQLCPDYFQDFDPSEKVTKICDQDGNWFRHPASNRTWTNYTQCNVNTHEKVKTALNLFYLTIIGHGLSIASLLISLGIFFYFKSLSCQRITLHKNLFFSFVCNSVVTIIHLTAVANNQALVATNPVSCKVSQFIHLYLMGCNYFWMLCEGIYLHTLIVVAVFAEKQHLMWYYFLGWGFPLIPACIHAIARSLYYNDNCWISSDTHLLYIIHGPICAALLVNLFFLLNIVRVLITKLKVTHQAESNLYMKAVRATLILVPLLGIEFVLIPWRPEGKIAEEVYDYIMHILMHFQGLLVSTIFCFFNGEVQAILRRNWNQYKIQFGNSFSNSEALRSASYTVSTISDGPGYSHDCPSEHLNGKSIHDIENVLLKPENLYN
T1 sequence (O60894 27-148): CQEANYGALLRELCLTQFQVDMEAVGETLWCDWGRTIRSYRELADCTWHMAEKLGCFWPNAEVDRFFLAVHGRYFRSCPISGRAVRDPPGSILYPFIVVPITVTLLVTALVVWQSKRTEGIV

With `Cc1cc(C(=O)c2cc(N3CCC4(CC3)NC(=O)Nc3ccccc34)ncn2)cc2oc(=O)[nH]c12` [Example 1, 4-methyl-6-(6-(2′-oxo-2′,3′-dihydro-1′H-spiro[piperidin-4,4′-quinazolin]-1-yl)pyrimidine-4-carbonyl)benzo[d]oxazol-2(3H)-one], affinity was put at a Ki of 6 nM.
As for `Cc1cc(C(=O)c2cc(Nc3ccc4c(c3)CC3(C4)C(=O)Nc4ncccc43)ncn2)cc2oc(=O)[nH]c12` (centres unmarked) [Example 2, 4-methyl-6-(6-(2′-oxo-1,1′,2′,3-tetrahydrospiro[inden-2,3′-pyrrolo[2,3-b]pyridin]-5-ylamino)pyrimidine-4-carbonyl)benzo[d]oxazol-2(3H)-one], the figure is 27 nM.

For orientation: Ki means the dissociation constant of the complex between target and ligand, obtained from inhibition or displacement. Low readings indicate higher affinity, high ones lower affinity.
